Test system: angioedema in CSU patients
Assay: Phase 2 CSU study: angioedema activity score over 7 days (AAS7)
Format: in vivo, human
Conditions: 400 mg BID; for AAS7 % Change difference for rilzabrutinib vs. placebo LS Mean (95% CI) / AAS7 % Change from baseline LS Mean (SE) / AAS7 Change difference for rilzabrutinib vs. placebo LS Mean (95% CI) / AAS7 Change from baseline LS Mean (SE) / AAS7 Post-baseline Mean (SD) / AAS7 = 0, Non-responder n (%) / AAS7 = 0, OR (95% CI) for rilzabrutinib vs. placebo / AAS7 = 0, RRD (%) for rilzabrutinib vs. placebo (95% CI) / Participants with AAS7 = 0, Responder n (%): angioedema at baseline; for Non-responder n (%), AAS7 = 0 / RRD (%) for rilzabrutinib vs. placebo (95% CI), AAS7 = 0 / Responder n (%), AAS7 = 0 / OR (95% CI) for rilzabrutinib vs. placebo, AAS7 = 0: outlier removed
Excerpt: The study comprises a 12 week, randomized, double-blind, placebo-controlled, multi-center, dose-ranging efficacy and safety phase, followed by a 40 week open label extension (OLE) phase (see FIG. 1). The study consists of three phases and an optional OLE phase. […] The weekly angioedema activity score (AAS7) was proposed as a tertiary endpoint. […] Patients were to complete the AAS using the e-diary. The e-diary was to be used once daily on the same time of each day recording of participant's answers to the angioedema activity score over 7 days (AAS7) questionnaire.

## CC(C)(C=C(C#N)C(=O)N1CCC[C@@H](n2nc(-c3ccc(Oc4ccccc4)cc3F)c3c(N)ncnc32)C1)N1CCN(C2COC2)CC1 [rilzabrutinib, (R)-2-[3-[4-amino-3-(2-fluoro-4-phenoxy-phenyl)pyrazolo[3,4-d]pyrimidin-1-yl]piperidine-1-carbonyl]-4-methyl-4-[4-(oxetan-3-yl)piperazin-1-yl]pent-2-enenitrile]
Week 1, ITT
  AAS7 % Change difference for rilzabrutinib vs. placebo LS Mean (95% CI): −40.37 (−70.92, −9.83) %
  AAS7 % Change from baseline LS Mean (SE): −60.34 (9.85) %
  AAS7 Change difference for rilzabrutinib vs. placebo LS Mean (95% CI): −9.84 (−22.84, 3.16)
  AAS7 Change from baseline LS Mean (SE): −24.34 (4.19)
  AAS7 Post-baseline Mean (SD): 23.35 (30.86)
Week 1, omalizumab-naïve
  Non-responder n (%), AAS7 = 0: 16 (45.7) n (%)
  RRD (%) for rilzabrutinib vs. placebo (95% CI), AAS7 = 0: 23.4 %
  Responder n (%), AAS7 = 0: 19 (54.3) n (%)
  AAS7 % Change difference for rilzabrutinib vs. placebo LS Mean (95% CI): −42.17 (−75.41, −8.93) %
  AAS7 = 0, Non-responder n (%): 15 (57.7) n (%)
  AAS7 = 0, OR (95% CI) for rilzabrutinib vs. placebo: 20.850
  AAS7 = 0, RRD (%) for rilzabrutinib vs. placebo (95% CI): 35.1 %
  AAS7 Change difference for rilzabrutinib vs. placebo LS Mean (95% CI): −9.69 (−23.74, 4.37)
  AAS7 Change from baseline LS Mean (SE): −23.46 (4.42)
  AAS7 Post-baseline Mean (SD): 25.15 (31.33)
  Participants with AAS7 = 0, Responder n (%): 11 (42.3) n (%)
Week 2, ITT
  AAS7 % Change difference for rilzabrutinib vs. placebo LS Mean (95% CI): −8.15 (−40.12, 23.82) %
  AAS7 % Change from baseline LS Mean (SE): −49.52 (12.60) %
  AAS7 Change difference for rilzabrutinib vs. placebo LS Mean (95% CI): −5.96 (−17.22, 5.30)
  AAS7 Change from baseline LS Mean (SE): −26.86 (4.43)
  AAS7 Post-baseline Mean (SD): 22.75 (28.74)
Week 2, omalizumab-naïve
  Non-responder n (%), AAS7 = 0: 18 (51.4) n (%)
  OR (95% CI) for rilzabrutinib vs. placebo, AAS7 = 0: 1.366
  RRD (%) for rilzabrutinib vs. placebo (95% CI), AAS7 = 0: 8.2 %
  Responder n (%), AAS7 = 0: 17 (48.6) n (%)
  AAS7 % Change difference for rilzabrutinib vs. placebo LS Mean (95% CI): −9.47 (−44.02, 25.08) %
  AAS7 % Change from baseline LS Mean (SE): −46.69 (13.31) %
  AAS7 = 0, Non-responder n (%): 17 (65.4) n (%)
  AAS7 = 0, OR (95% CI) for rilzabrutinib vs. placebo: 2.012
  AAS7 = 0, RRD (%) for rilzabrutinib vs. placebo (95% CI): 14.6 %
  AAS7 Post-baseline Mean (SD): 24.57 (29.12)
  Participants with AAS7 = 0, Responder n (%): 9 (34.6) n (%)
Week 3, ITT
  AAS7 % Change difference for rilzabrutinib vs. placebo LS Mean (95% CI): −7.33 (−47.50, 32.83) %
  AAS7 % Change from baseline LS Mean (SE): −55.85 (15.71) %
  AAS7 Change difference for rilzabrutinib vs. placebo LS Mean (95% CI): −11.42 (−22.95, 0.12)
  AAS7 Change from baseline LS Mean (SE): −35.57 (4.51)
  AAS7 Post-baseline Mean (SD): 14.81 (20.54)
Week 3, omalizumab-naïve
  Non-responder n (%), AAS7 = 0: 15 (42.9) n (%)
  OR (95% CI) for rilzabrutinib vs. placebo, AAS7 = 0: 2.357
  RRD (%) for rilzabrutinib vs. placebo (95% CI), AAS7 = 0: 21.6 %
  Responder n (%), AAS7 = 0: 20 (57.1) n (%)
  AAS7 % Change difference for rilzabrutinib vs. placebo LS Mean (95% CI): −5.01 (−48.85, 38.83) %
  AAS7 % Change from baseline LS Mean (SE): −52.68 (16.72) %
  AAS7 = 0, Non-responder n (%): 15 (57.7) n (%)
  AAS7 = 0, OR (95% CI) for rilzabrutinib vs. placebo: 2.703
  AAS7 = 0, RRD (%) for rilzabrutinib vs. placebo (95% CI): 20.8 %
  AAS7 Post-baseline Mean (SD): 15.95 (20.90)
  Participants with AAS7 = 0, Responder n (%): 11 (42.3) n (%)
Week 4, ITT
  AAS7 % Change from baseline LS Mean (SE): −60.60 (13.93) %
  AAS7 Change difference for rilzabrutinib vs. placebo LS Mean (95% CI): −12.73 (−23.88, −1.58)
  AAS7 Change from baseline LS Mean (SE): −35.34 (4.34)
  AAS7 Post-baseline Mean (SD): 13.70 (17.64)
Week 4, omalizumab-naïve
  Non-responder n (%), AAS7 = 0: 17 (48.6) n (%)
  OR (95% CI) for rilzabrutinib vs. placebo, AAS7 = 0: 1.361
  RRD (%) for rilzabrutinib vs. placebo (95% CI), AAS7 = 0: 7.4 %
  Responder n (%), AAS7 = 0: 18 (51.4) n (%)
  AAS7 % Change difference for rilzabrutinib vs. placebo LS Mean (95% CI): −28.19 (−67.14, 10.77) %
  AAS7 % Change from baseline LS Mean (SE): −58.12 (14.75) %
  AAS7 = 0, Non-responder n (%): 15 (57.7) n (%)

Source: patent US20260256792A1, “TREATMENT OF CHRONIC SPONTANEOUS URTICARIA BY ADMINISTERING (R)-2-[3-[4-AMINO-3-(2-FLUORO-4-PHENOXY-PHENYL)PYRAZOLO[3,4-D]PYRIMIDIN-1-YL]PIPERIDINE-1-CARBONYL]-4-METHYL-4-[4-(OXETAN-3-YL)PIPERAZIN-1-YL]PENT-2-ENENITRILE” (priority 2023, published 2026)
